Like-named read-outs stand apart in the source and are kept apart here.
Key:
[1] = target: T1, CBL-B (Homo sapiens, UniProt Q13191); experiment: Jurkat HiBit-IL2 assay (c-CBL KO), reporter cell line expressing CBL-B only; type: cell-based; conditions: geometric mean, read-out: C-CBL KO EC50 (nM) GMean
T1 construct: endogenous in cells; host or cells: Jurkat HiBit-IL2 reporter cells, C-CBL knocked out by CRISPR
Outline: (§1)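 CRISPR knockout Jurkat HiBit-IL2 reporter cells (20,000/well) were preincubated 1 h with compounds (0.1% DMSO), then stimulated 4 h at 37 °C with anti-CD3 (1 μg/ml) and anti-CD28 (2 μg/ml) final. IL-2 was read by HiBiT lytic luminescence, normalized as fold over antibody-only baseline; EC50 reported as geometric mean.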

[2] = target: T2, C-CBL (Homo sapiens, UniProt P22681); experiment: Jurkat HiBit-IL2 assay (CBL-B KO), reporter cell line expressing C-CBL only; type: cell-based; conditions: geometric mean, read-out: CBL-B KO EC50 (nM) GMean
T2 construct: endogenous in cells; host or cells: Jurkat HiBit-IL2 reporter cells, CBL-B knocked out by CRISPR
Outline: as §1

[3] = target: T3, C-CBL (residues 46-435) (Homo sapiens, UniProt P22681); experiment: Ligand Displacement Assay (LDA), HTRF competitive binding against BODIPY-labeled fluorescent tracer, C-CBL; conditions: geometric mean of the number of tests, read-out: C-CBL Ki (nM) GMean
T3 construct: Purified CBL-B (residues 36-427) and C-CBL (residues 46-435) proteins from baculovirus-infected insect cells; made in house; host or cells: baculovirus-infected insect cells
T3 sequence (P22681 46-435): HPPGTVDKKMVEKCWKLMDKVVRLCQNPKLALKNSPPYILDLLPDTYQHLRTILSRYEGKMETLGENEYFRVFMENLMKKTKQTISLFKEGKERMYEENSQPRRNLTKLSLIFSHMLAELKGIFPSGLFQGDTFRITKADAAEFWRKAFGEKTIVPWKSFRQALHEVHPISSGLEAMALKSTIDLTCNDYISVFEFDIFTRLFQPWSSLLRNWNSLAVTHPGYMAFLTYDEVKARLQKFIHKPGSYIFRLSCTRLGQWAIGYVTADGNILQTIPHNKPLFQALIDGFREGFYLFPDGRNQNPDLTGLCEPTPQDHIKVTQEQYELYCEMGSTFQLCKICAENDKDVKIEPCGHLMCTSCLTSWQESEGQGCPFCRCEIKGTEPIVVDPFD
Outline: (§2)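 Competition with a BODIPY fluorescent tracer was read by HTRF, each protein carrying an N-terminal biotinylated AviTag bound to Tb-streptavidin. Tracer KD values were set beforehand per protein; Ki derives from duplicate three-fold compound series ([…], 2% DMSO), averaged geometrically across tests.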

[4] = target: T4, CBL-B (residues 36-427) (Homo sapiens, UniProt Q13191); experiment: Ligand Displacement Assay (LDA), HTRF competitive binding against BODIPY-labeled fluorescent tracer, CBL-B; conditions: geometric mean of the number of tests, read-out: CBL-B Ki (nM) GMean
T4 construct: Purified CBL-B (residues 36-427) and C-CBL (residues 46-435) proteins from baculovirus-infected insect cells; made in house; host or cells: baculovirus-infected insect cells
Outline: as §2

[5] = c-CBL KO (CBL-B only), anti-CD3/anti-CD28 stimulation 4 hours, Table 16a
[6] = CBL-B KO (C-CBL only), anti-CD3/anti-CD28 stimulation 4 hours, Table 16a
[7] = C-CBL KO (expressing CBL-B only), Table 16b (further repetition)
[8] = CBL-B KO (expressing C-CBL only), Table 16b (further repetition)

## C[C@H](N[C@@H]1CC[C@@H]1O)c1nc(C(F)(F)F)cc2c(-c3cccc([C@H](c4nncn4C)C4CCC4)c3)n[nH]c12 (single isomer, unassigned) [Example D28]
[1]; [5]
  EC50: 1 nM
[2]; [6]
  EC50: 4 nM
[3]
  Ki: 0.6 nM
[4]
  Ki: 0.7 nM

## C[C@H](N[C@H]1CCC(F)(F)C1)c1nc(C(F)(F)F)cc2c(-c3cccc(C4(Cc5nncn5C)COC4)c3)n[nH]c12 (single isomer, unassigned) [Example C12]
[1]; [7]
  EC50: 8 nM
[1]; [5]
  EC50: 4 nM
[2]; [6]
  EC50: 25 nM
[2]; [8]
  EC50: 16 nM
[3]
  Ki: 1.3 nM
[4]
  Ki: 0.9 nM

## C[C@@H](N[C@H]1CCC(F)(F)C1)c1nc(C(F)(F)F)cc2c(-c3cccc(C4(Cc5nncn5C)COC4)c3)n[nH]c12 (single isomer, unassigned) [Example C13]
[1]; [5]
  EC50: 16 nM
[2]; [6]
  EC50: 63 nM
[3]
  Ki: 8 nM
[4]
  Ki: 2.3 nM

## C[C@@H](NC1CC(F)(F)C1)c1nc(C(F)(F)F)cc2c(-c3cccc([C@H](c4nncn4C)C4CCC4)c3)n[nH]c12 (single isomer, unassigned) [Example D91]
[1]; [7]
  EC50: 41 nM
[2]; [8]
  EC50: 238 nM
[3]
  Ki: 66.8 nM
[4]
  Ki: 6.2 nM

## C[C@@H]1CCCN([C@H](C)c2nc(C(F)(F)F)cc3c(-c4cccc(C5(Cc6nncn6C)COC5)c4)n[nH]c23)C1 (single isomer, unassigned) [Example D14]
[1]; [5]
  EC50: 354 nM
[2]; [6]
  EC50: 2010 nM
[3]
  Ki: 183 nM
[4]
  Ki: 42.9 nM

## Cn1cnnc1[C@@H](c1cccc(-c2n[nH]c3cnc(C(F)(F)F)cc23)c1)C1CCC1 [Example A1, 3-{3-[(R)-cyclobutyl(4-methyl-4H-1,2,4-triazol-3-yl)methyl]phenyl}-5-(trifluoromethyl)-1H-pyrazolo[3,4-c]pyridine]
[1]; [7]
  EC50: 1810 nM
[1]; [5]
  EC50: > 2990 nM
[2]; [6]
  EC50: > 5280 nM
[2]; [8]
  EC50: 4500 nM
[3]
  Ki: 681 nM
[4]
  Ki: 74.4 nM

## CC(c1nc(C(F)(F)F)cc2c(-c3cccc(C4(Cc5nncn5C)COC4)c3)n[nH]c12)N1CCOCC1 (single isomer, unassigned) [Example C24, 3-(3-{3-[(4-methyl-4H-1,2,4-triazol-3-yl)methyl]oxetan-3-yl}phenyl)-7-[(1ξ)-1-(morpholin-4-yl)ethyl]-5-(trifluoromethyl)-1H-pyrazolo[3,4-c]pyridine]
[1]; [5]
  EC50: 434 nM
[2]; [6]
  EC50: 2970 nM
[3]
  Ki: 134 nM
[4]
  Ki: 28.3 nM

## CC(NC1CCCC1)c1nc(C(F)(F)F)cc2c(-c3cccc([C@H](c4nncn4C)C4CCC4)c3)n[nH]c12 (stereo partly drawn) [Example C14, N-{(1ξ)-1-[3-{3-[(R)-cyclobutyl(4-methyl-4H-1,2,4-triazol-3-yl)methyl]phenyl}-5-(trifluoromethyl)-1H-pyrazolo[3,4-c]cyclopen-7-yl]ethyl}cyclopentanamine]
[1]; [7]
  EC50: 5 nM
[1]; [5]
  EC50: 4 nM
[2]; [6]
  EC50: 26 nM
[2]; [8]
  EC50: 17 nM
[3]
  Ki: 2.3 nM
[4]
  Ki: 0.4 nM

## C[C@H](O)CN[C@@H](C)c1nc(C(F)(F)F)cc2c(-c3cccc([C@H](c4nncn4C)C4CCC4)c3)n[nH]c12 (single isomer, unassigned) [Example D19]
[1]; [7]
  EC50: 24 nM
[1]; [5]
  EC50: 9 nM
[2]; [6]
  EC50: 132 nM
[2]; [8]
  EC50: 157 nM
[3]
  Ki: 12.4 nM
[4]
  Ki: 1 nM

## C[C@@H](NC1CCCC1)c1nc(C(F)(F)F)cc2c(-c3cccc(C4(Cc5nncn5C)COC4)c3)n[nH]c12 (single isomer, unassigned) [Example C15]
[1]; [5]
  EC50: 43 nM
[2]; [6]
  EC50: 229 nM
[3]
  Ki: 42.1 nM
[4]
  Ki: 8.9 nM

## CCNC(C)c1nc(C(F)(F)F)cc2c(-c3cccc([C@H](c4nncn4C)C4CCC4)c3)n[nH]c12 (single isomer, unassigned) [Example C89]
[1]; [7]
  EC50: 85 nM
[2]; [8]
  EC50: 471 nM
[3]
  Ki: 105 nM
[4]
  Ki: 8 nM

## C[C@H](N[C@H]1CCOC1)c1nc(C(F)(F)F)cc2c(-c3cccc([C@H](c4nncn4C)C4CCC4)c3)n[nH]c12 (single isomer, unassigned) [Example C2]
[1]; [5]
  EC50: 54 nM
[2]; [6]
  EC50: 641 nM
[3]
  Ki: 55.6 nM
[4]
  Ki: 3.9 nM

Source: patent US20260125375A1 (Pfizer Inc., priority 2022, published 2026)
